Measurements reported in ChEMBL document CHEMBL1800002, “Indazole derivatives as novel bradykinin B1 receptor antagonists” (Bioorg Med Chem Lett, 2010).
pKi: −log10 of the molar value.

Legend:
Cannabinoid receptor 2 = Cannabinoid receptor 2 (Homo sapiens, UniProt P34972); assay: Displacement of radioligand from human CB2 receptor expressed in CHO cells; format: cell-based
[1] = Half life in Mongrel dog at 3 mg/kg, po or 1 mg/kg, iv; format: ADME, organism-based, Canis lupus familiaris; conditions: in vivo
[2] = Clearance in Mongrel dog at 3 mg/kg, po or 1 mg/kg, iv; format: ADME, organism-based, Canis lupus familiaris; conditions: in vivo
[3] = Oral bioavailability in Sprague-Dawley rat at 10 mg/kg; format: ADME, organism-based; conditions: in vivo
[4] = Half life in Sprague-Dawley rat at 10 mg/kg, po or 2 mg/kg, iv; format: ADME, organism-based; conditions: in vivo
[5] = Apparent passive permeability coefficient by cell based assay; format: ADME
[6] = Clearance in Sprague-Dawley rat at 10 mg/kg, po or 2 mg/kg, iv; format: ADME, organism-based; conditions: in vivo
[7] = biological target: ATP-dependent translocase ABCB1 (Homo sapiens, UniProt P08183); assay: Drug transport assessed as MDR1 -mediated transcellular transport ratio by P-gp transport assay; format: ADME
Liver microsomes = assay: Stability in human liver microsomes; format: ADME, Microsome

Cannabinoid receptor 2, sequence (P34972 whole entry): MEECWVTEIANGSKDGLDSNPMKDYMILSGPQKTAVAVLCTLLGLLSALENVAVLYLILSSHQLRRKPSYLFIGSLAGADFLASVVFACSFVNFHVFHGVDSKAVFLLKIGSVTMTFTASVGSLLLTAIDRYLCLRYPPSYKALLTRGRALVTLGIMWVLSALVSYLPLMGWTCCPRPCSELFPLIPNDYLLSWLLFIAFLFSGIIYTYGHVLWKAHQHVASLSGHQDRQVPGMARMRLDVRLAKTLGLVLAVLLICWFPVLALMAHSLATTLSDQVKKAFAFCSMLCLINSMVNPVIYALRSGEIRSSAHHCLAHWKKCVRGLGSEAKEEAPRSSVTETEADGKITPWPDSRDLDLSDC
ATP-dependent translocase ABCB1, sequence (P08183 whole entry): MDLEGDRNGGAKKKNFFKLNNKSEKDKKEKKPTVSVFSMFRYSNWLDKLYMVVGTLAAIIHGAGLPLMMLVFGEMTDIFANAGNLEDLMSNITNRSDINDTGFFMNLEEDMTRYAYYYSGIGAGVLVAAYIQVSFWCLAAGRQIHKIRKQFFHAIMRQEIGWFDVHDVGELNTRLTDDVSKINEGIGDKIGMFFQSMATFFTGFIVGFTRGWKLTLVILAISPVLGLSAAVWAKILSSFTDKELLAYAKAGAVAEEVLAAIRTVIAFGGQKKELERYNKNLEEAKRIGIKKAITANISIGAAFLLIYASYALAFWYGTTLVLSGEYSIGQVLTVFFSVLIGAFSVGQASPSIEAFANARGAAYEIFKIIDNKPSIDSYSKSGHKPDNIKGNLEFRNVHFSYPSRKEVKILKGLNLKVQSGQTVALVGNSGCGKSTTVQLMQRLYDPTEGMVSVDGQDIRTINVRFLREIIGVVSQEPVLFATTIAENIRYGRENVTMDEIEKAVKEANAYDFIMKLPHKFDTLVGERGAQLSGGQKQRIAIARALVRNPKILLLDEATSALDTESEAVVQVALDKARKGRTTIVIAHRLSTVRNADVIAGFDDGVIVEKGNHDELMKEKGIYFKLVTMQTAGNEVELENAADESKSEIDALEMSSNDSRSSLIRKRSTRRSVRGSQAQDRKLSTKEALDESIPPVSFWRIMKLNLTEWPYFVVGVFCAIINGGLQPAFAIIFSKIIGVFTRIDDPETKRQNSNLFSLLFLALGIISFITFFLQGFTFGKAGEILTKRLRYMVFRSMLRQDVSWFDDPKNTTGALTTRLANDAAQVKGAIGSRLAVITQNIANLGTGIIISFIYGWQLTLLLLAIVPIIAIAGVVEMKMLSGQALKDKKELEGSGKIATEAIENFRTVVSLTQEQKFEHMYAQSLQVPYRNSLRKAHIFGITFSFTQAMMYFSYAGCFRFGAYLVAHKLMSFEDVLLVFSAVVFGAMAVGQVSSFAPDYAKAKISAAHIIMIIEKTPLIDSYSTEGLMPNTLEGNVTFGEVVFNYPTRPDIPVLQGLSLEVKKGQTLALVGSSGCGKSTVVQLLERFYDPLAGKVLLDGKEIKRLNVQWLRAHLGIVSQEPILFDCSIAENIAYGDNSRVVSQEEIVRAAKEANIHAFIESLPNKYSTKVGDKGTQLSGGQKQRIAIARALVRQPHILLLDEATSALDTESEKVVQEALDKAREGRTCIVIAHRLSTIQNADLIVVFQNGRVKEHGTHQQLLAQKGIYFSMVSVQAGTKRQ

Row | pKi (Cannabinoid receptor 2) | half-life [1] [h] | clearance [2] [mL/min/kg] | Papp [5] [×10⁻⁶ cm/s] | Ratio [7] | SMILES | other results
1 | < 5.00 | – | – | – | – | CCc1nn(-c2ccc([C@@H](C)NC(=O)C3(NC(=O)c4cc(OC)no4)CC3)c(F)c2)c2ccccc12 | –
2 | – | 2.3 | 5.5 | 21 | 5.3 | COc1cncc(C(=O)NC2(C(=O)N[C@H](C)c3ccc(-n4nc(Cl)c5ccccc54)cc3F)CC2)c1 | bioavailability [3]: 6%; half-life [4]: 0.7 h; clearance [6]: 7.8 mL/min/kg
3 | – | 15.1 | 10.5 | 24 | 1.8 | C[C@@H](NC(=O)C1(NC(=O)c2cncc(Cl)n2)CC1)c1ccc(-n2nc(Cl)c3ccccc32)cc1F | half-life [4]: 1.6 h; clearance [6]: 105 mL/min/kg
4 | – | 2.4 | 9.6 | 21 | 2.3 | Cc1nnsc1C(=O)NC1(C(=O)N[C@H](C)c2ccc(-n3nc(Cl)c4ccccc43)cc2F)CC1 | –
5 | – | – | – | 19 | 55.6 | C[C@@H](NC(=O)C1(NC(=O)c2cn[nH]c2)CC1)c1ccc(-n2nc(Cl)c3ccccc32)cc1F | Stability (Liver microsomes): Stable
6 | < 5.00 | – | – | – | – | COc1cc(C(=O)NC2(C(=O)N[C@H](C)c3ccc(-n4nc(OC)c5ccccc54)cc3F)CC2)on1 | –
7 | – | – | – | – | – | Cc1ncsc1C(=O)NC1(C(=O)N[C@H](C)c2ccc(-n3nc(Cl)c4ccccc43)cc2F)CC1 | Stability (Liver microsomes): Unstable
8 | < 5.00 | – | – | – | – | COc1cc(C(=O)NC2(C(=O)N[C@H](C)c3ccc(-n4nc(C#N)c5ccccc54)cc3F)CC2)on1 | –
9 | – | 2.6 | 4.3 | 22 | 1.9 | Cc1cncc(C(=O)NC2(C(=O)N[C@H](C)c3ccc(-n4nc(Cl)c5ccccc54)cc3F)CC2)c1 | –
10 | – | 8.3 | 1.7 | 14 | 1.8 | COc1ncc(C(=O)NC2(C(=O)N[C@H](C)c3ccc(-n4nc(Cl)c5ccccc54)cc3F)CC2)s1 | bioavailability [3]: 13%; half-life [4]: 8.3 h; clearance [6]: 12.7 mL/min/kg
11 | < 5.00 | – | – | – | – | COc1cc(C(=O)NC2(C(=O)N[C@H](C)c3ccc(-n4nc(Br)c5ccccc54)cc3F)CC2)on1 | –
12 | – | 7.1 | 2.6 | 8.2 | 2.2 | C[C@@H](NC(=O)C1(NC(=O)c2ccc(Br)nc2)CC1)c1ccc(-n2nc(Cl)c3ccccc32)cc1F | –
13 | < 5.00 | – | – | – | – | COc1cc(C(=O)NC2(C(=O)N[C@H](C)c3ccc(-n4[nH]c(=O)c5ccccc54)cc3F)CC2)on1 | –
14 | – | 4.3 | 1.1 | 19 | 2.8 | C[C@@H](NC(=O)C1(NC(=O)c2cncs2)CC1)c1ccc(-n2nc(Cl)c3ccccc32)cc1F | –
15 | < 5.00 | – | – | – | – | COc1cc(C(=O)NC2(C(=O)N[C@H](C)c3ccc(-n4nc(C5CC5)c5ccccc54)cc3F)CC2)on1 | –
16 | – | – | – | 24 | 7.5 | C[C@@H](NC(=O)C1(NC(=O)c2cncc(F)c2)CC1)c1ccc(-n2nc(Cl)c3ccccc32)cc1F | –
17 | < 5.00 | – | – | – | – | COc1cc(C(=O)NC2(C(=O)N[C@H](C)c3ccc(-n4nc(-c5ccccc5)c5ccccc54)cc3F)CC2)on1 | –
18 | – | – | – | – | 4.1 | COC(=O)c1c(F)cccc1-c1ccc(CNC(=O)C2(NC(=O)C(F)(F)F)CC2)c(F)c1 | –
19 | – | – | – | 30 | 1.6 | C[C@@H](NC(=O)C1(NC(=O)c2cnccn2)CC1)c1ccc(-n2nc(Cl)c3ccccc32)cc1F | –
20 | – | – | – | 24 | 5.9 | C[C@@H](NC(=O)C1(NC(=O)c2cncnc2)CC1)c1ccc(-n2nc(Cl)c3ccccc32)cc1F | –
21 | < 5.00 | – | – | – | – | COc1cc(C(=O)NC2(C(=O)N[C@H](C)c3ccc(-n4ncc5ccccc54)cc3F)CC2)on1 | –
22 | – | – | – | 18 | 89 | C[C@@H](NC(=O)C1(NC(=O)c2cncc(O)c2)CC1)c1ccc(-n2nc(Cl)c3ccccc32)cc1F | –
23 | – | 6 | 3.1 | 15 | 2.5 | C[C@@H](NC(=O)C1(NC(=O)c2cncc(Cl)c2)CC1)c1ccc(-n2nc(Cl)c3ccccc32)cc1F | –
24 | – | – | – | 25 | 29.4 | C[C@@H](NC(=O)C1(NC(=O)c2ccnnc2)CC1)c1ccc(-n2nc(Cl)c3ccccc32)cc1F | –
25 | < 5.00 | 20.8 | 1.3 | 26 | 1.6 | COc1cc(C(=O)NC2(C(=O)N[C@H](C)c3ccc(-n4nc(Cl)c5ccccc54)cc3F)CC2)on1 | bioavailability [3]: 49%; half-life [4]: 3.1 h; clearance [6]: 5.3 mL/min/kg
26 | – | 7.6 | 3.8 | 13 | 2.3 | C[C@@H](NC(=O)C1(NC(=O)c2cncc(Br)c2)CC1)c1ccc(-n2nc(Cl)c3ccccc32)cc1F | bioavailability [3]: 24%; half-life [4]: 3.1 h; clearance [6]: 2.5 mL/min/kg
27 | < 5.00 | – | – | – | – | COc1cc(C(=O)NC2(C(=O)N[C@H](C)c3ccc(-n4nc(C)c5ccccc54)cc3F)CC2)on1 | –
